Measurements taken from patent US20250122189A1, “FGFR4 INHIBITOR ACID SALT, PREPARATION METHOD THEREFOR AND USE THEREOF” (Abbisko Therapeutics Co., Ltd., priority 2021, published 2025).
Structures can show the parent of a compound that is named as a salt.

Assays:
[1] = In vivo pharmacokinetic experiment in monkeys; conditions: Monkey, 200 mpk (based on the compound in free form); 200 mg/kg
Description: The p-toluenesulfonate salt of the compound of formula (I) (Form A) and the compound of formula (I) in free form were each subjected to PK experiments in monkeys, and the administration dose was 200 mpk (based on the compound in free form).

Solubility in water = assay type: physicochemical; conditions: stirred 24 hrs at room temperature
Experimental: 2 mg of the p-toluenesulfonate salt of the compound of formula (I) (Form A) and 2 mg of the compound of formula (I) in free form were separately placed in a 2 mL glass bottle, 0.4 mL of water was added into the glass bottles separately, the two mixtures were each stirred for 24 hrs on a magnetic stirrer at room temperature and then centrifuged, and the content measurement was carried out by using a liquid phase.

[2] = Stability test under high temperature and accelerated conditions (chemical purity); assay type: physicochemical
Description: The p-toluenesulfonate salt of the compound of formula (I) (Form A) and the compound of formula (I) in free form were subjected to conditions of high temperature and accelerated experiments for stability test, and the chemical purity was used as an evaluation index to evaluate the stability of the p-toluenesulfonate salt of the compound of formula (I) (Form A) and the compound of formula (I) in free form.

[3] = Solubility in physiological vehicle (25% PEG300/5% Solutol HS15/70% water); assay type: physicochemical; conditions: vehicle 25% PEG300/5% Solutol HS15/70% water (v/v/v), room temperature, various time points (FIG. 7)
Experimental: 80 mg of the p-toluenesulfonate salt of the compound of formula (I) (Form A) and 80 mg of the compound of formula (I) in free form were separately placed in a 4 mL glass bottle, 2 mL of vehicle (25% PEG300/5% Solutol HS15/70% water) (v/v/v) was added into the glass bottles separately, the two mixtures were each stirred on a magnetic stirrer at room temperature, samples were taken at various time points and centrifuged, and the content measurement was carried out by using a liquid phase.

[4] = Hygroscopic behavior test (dynamic vapor sorption); assay type: physicochemical; conditions: DVS, 25° C., relative humidity 0% to 90%
Description: The experimental method of characterizing the crystalline acidic salts of the compound of formula (I) using dynamic vapor sorption (DVS) is as follows: a small amount of crystalline acidic salt powder of the compound of formula (I) was placed in a precision sample pan that came with the instrument; after the sample was loaded, the aluminum pan was sent into the instrument for analysis. In the present patent, the instruments used for dynamic vapor sorption were all the DVS Intrinsic model, and the experimental parameters were set as follows: nitrogen was set as carrier gas, the constant temperature was set to 25° C., the rate of mass percentage change over a unit of time (dm/dt)=0.01%/min was used as a criterion for determining if an equilibrium is reached, and the program humidity change cycle was set as follows: the initial relative humidity was 0%, the relative humidity was 90% at the end of the cycle, 2 cycles were set, and each 10% R.H. change was a step.
The hygroscopic weight gains of the p-toluenesulfonate salt of the compound of formula (I) (Form A) in various relative humidity conditions (hygroscopic weight gain/pre-hygroscopic weight*100%) were measured according to the dynamic vapor sorption method to assess the hygroscopicity of the p-toluenesulfonate salt of the compound of formula (I) (Form A).

Row | AUC [1] | Solubility (Solubility in water) | Chemical stability (% initial) ([2]; 40° C./75% RH, 3 d) | Chemical stability (% initial) ([2]; 40° C./75% RH, 7 d) | Chemical stability (% initial) ([2]; 40° C./75% RH, 14 d) | Chemical stability (% initial) ([2]; 60° C., 3 d) | Chemical stability (% initial) ([2]; 60° C., 7 d) | Chemical stability (% initial) ([2]; 60° C., 14 d) | solubility compared with the compound of formula (I) in free form [3] | weight change along with the increase of relative humidity (hygroscopic weight gain) [4] | Structure (SMILES)
1 | 9952 ng·h/mL | 25.6 µg/mL | 99.9 % initial | 100.0 % initial | 100.0 % initial | 100.1 % initial | 100.1 % initial | 100.1 % initial |  |  | C=CC(=O)N[C@H]1CCOC[C@H]1Nc1ncc2cc(-c3c(F)c(OC)cc(OC)c3F)nc(N3CC(C)(OC)C3)c2n1 [Compound of formula (I) in free form, N-((3S,4S)-3-((6-(2,6-difluoro-3,5-dimethoxyphenyl)-8-(3-methoxy-3-methylazetidin-1-yl)pyrido[3,4-d]pyrimidin-2-yl)amino)tetrahydro-2H-pyran-4-yl)acrylamide]
2 | 124860 ng·h/mL | 1370 µg/mL | 100.2 % initial | 100.1 % initial | 100.0 % initial | 100.3 % initial | 99.8 % initial | 99.8 % initial | significantly higher | no more than 2% | C=CC(=O)N[C@H]1CCOC[C@H]1Nc1ncc2cc(-c3c(F)c(OC)cc(OC)c3F)nc(N3CC(C)(OC)C3)c2n1 [p-toluenesulfonate salt of the compound of formula (I) (Form]
